From article PMC9704608, “Anti-leishmanial physalins—Phytochemical investigation, in vitro evaluation against clinical and MIL-resistant L. tropica strains and in silico studies” (PLOS ONE, 2022)
Like-named read-outs stand apart in the source and are kept apart here.

Legend:
[1] = system: MIL-resistant L. tropica promastigotes; assay: Growth inhibition assay (MTT) against MIL-resistant line; assay type: cell-based, Leishmania tropica; conditions: 72 h; for MIL Resistant L. tropica IC50 (μM± SD): miltefosine-unresponsive strain, promastigotes
Protocol: (§1) The promastigotes in their log phase were used in 96-well plates. 1 × 10^6 wild-type and resistant promastigotes were dispensed in 96 96-well plates, and incubated with tested compounds at a range concentration of 200–10 μM at 27°C for 72 h. After incubation of 72 h, MTT dye (3-(4,5-dimethylthiazol-2-yl)-2,5-diphenyl-2H-tetrazolium bromide) was added and further incubate it for 3–4 h. Amphotericin B, pantamidine and miltefosine were used as the positive control, untreated promastigotes were used as negative control moreover DMSO control was also added in the study as a stock solution of the compounds that were prepared in DMSO. All the experiments were performed in triplicates. After completion of the experiment the absorbance by Multiskan ascent plate reader at 452 nm and percent inhibition was calculated by the following formula.
(§2) Cytotoxic concentration (%) = [100- (Absorbance of test)/ (Absorbance of solvent control) ×100] %.
Promastigote cultures tL. tropica (Clinical isolates) were maintained at 26°C in RPMI-1640 medium containing 15% FBS and 1% penicillin–streptomycin mixture.
Generation of miltefosine-unresponsive strain was carried under high MIL pressure by in vitro passage with a stepwise increase in the MIL concentration. At each step, parasites were cultured and passaged every 3–4 days at an initial concentration of 5x10^5 promastigotes/mL in order to achieve -stable growth as compared to the wildtype isolate. Growth rates were measured for resistant populations and compared with the WT strain. Parasites were counted at an initial concentration of 5x10^5 parasites/mL and growth was measured daily using a Neubauer chamber until the population reached the stationary phase. Furthermore, the fluorescence microscopic investigations via DAPI stain were also carried out to supplement the study.

[2] = Cytotoxicity (MTT) against 3T3 cell line; assay type: cell-based, mouse; conditions: pure compounds; mouse fibroblast, 48 h; read-out: 3T3 Cell line CC50 (μM± SD)
Protocol: (§3) The cytotoxicity of the test compounds against normal cell lines was evaluated through MTT (3-[4, 5-dimethylthiazole-2-yl]-2, 5-diphenyl-tetrazolium bromide] colorimetric assay in 96-well flat-bottomed microplates. The 3T3 (mouse fibroblast) and BJ (human fibroblast) were cultured Dulbecco’s Modified Eagle Medium, supplemented with 5% of fetal bovine serum (FBS), 100 IU/mL of penicillin and 100 μg/mL of streptomycin in 75 cm2 flasks, and then incubated in 5% CO2 incubator at 37°C. The growing cells were counted by using a haemocytometer, and diluted with the particular medium. The 5x10^4 cells/mL of the cell culture was prepared, and a sample […] was introduced into each well. The medium was removed after overnight incubation, and 200 μL of fresh medium was added with different concentrations of compounds (1–30 μM). After 48 hours, 200 μL MTT (0.5 mg/mL) was added, and the incubation was further continued for 4 hrs. After that time, 100 μL of DMSO was added to each well. The absorbance was measured using a micro plate reader (Spectra Max Plus, Molecular Devices, CA, USA) at 570 nm for the extent of MTT reduction to formazan within the cells. The cytotoxicity was recorded as CC50 against cells by using Soft- Max Pro software. Doxorubicin and cycloheximide were used as positive control. The experiments were run in triplicate.

[3] = system: 3T3 (mouse fibroblast) cells; assay: Cytotoxicity (MTT) against 3T3 cell line; assay type: cell-based; conditions: for IC50: Mus musculus, Fibroblast, read-out: 3T3 (mouse fibroblast) IC50 (μM ± SD); for L. tropica SI (CC50/ IC50): CC50 3T3 cell line / IC50 L. tropica; for 3T3 Cell line CC50 (μM± SD): pure compounds, mouse fibroblast, 48 h
Protocol: as §3

[4] = Cytotoxicity (MTT) against BJ cell line; assay type: cell-based, human; conditions: pure compounds, human fibroblast, 48 h, read-out: BJ cell line CC50 (μM± SD)
Protocol: as §3, with “The medium was removed after overnight incubation, and 200 μL of fresh medium was added with different concentrations of compounds (1–30 μM).” left out

[5] = system: BJ (human fibroblast) cells; assay: Cytotoxicity (MTT) against BJ cell line; assay type: cell-based; conditions: for L. tropica SI (CC50/ IC50): CC50 BJ cell line / IC50 L. tropica; for IC50: Homo sapiens, Fibroblast, read-out: BJ (human fibroblast) IC50 (μM± SD); for BJ cell line CC50 (μM± SD): pure compounds, human fibroblast, 48 h
Protocol: as §3, with “The medium was removed after overnight incubation, and 200 μL of fresh medium was added with different concentrations of compounds (1–30 μM).” left out

L. tropica promastigotes = assay: Promastigote growth inhibition assay (MTT), L. tropica clinical isolates; assay type: cell-based, Leishmania tropica; conditions: for IC50: Leishmania tropica; for IC50 / L. tropica IC50 (μM± SD): 72 h
Protocol: (§4) L. major and L. tropica (Clinical isolates) promastigotes were grown at […] in RPMI-1640 (Sigma) medium containing 10% of heat-inactivated (56°C for 30 min) fetal bovine serum. Cell viability was initially evaluated by wet mount method by observing the live cells under compound microscope. Parasite growth was assessed by counting live / motile promastigotes in a Neubauer chamber. Viable cell count was used for the further experimentations (treatments).
as §1, §2

L. major promastigotes = assay: Promastigote growth inhibition assay (MTT), L. major; assay type: cell-based, Leishmania major; conditions: for IC50: Leishmania major; for IC50 / L. major IC50 (μM± SD): 72 h; for anti-leishmanial activity against promastigotes of L. major (in words): in vitro
Protocol: as §4, §1, §2

[6] = CC50 BJ fibroblast cell line / IC50 L. tropica
[7] = read-out: L. tropica IC50 (μM± SD)
[8] = CC50 3T3 mouse fibroblast cell line / IC50 L. major
[9] = CC50 BJ fibroblast cell line / IC50 L. major
[10] = read-out: L. major IC50 (μM± SD)
[11] = CC50 3T3 mouse fibroblast cell line / IC50 L. tropica
[12] = pure compounds, standard drugs, promastigotes
[13] = extracts, fractions, standard drugs, promastigotes, read-out: L. tropica IC50 (μg/ml ± SD)
[14] = pure compounds, standard drugs, promastigotes, clinical isolate, read-out: L. tropica IC50 (μM± SD)
[15] = extracts, fractions, standard drugs, promastigotes, read-out: L. major IC50 (μg/ml ± SD)
[16] = pure compounds, standard drugs, promastigotes, read-out: L. major IC50 (μM± SD)
[17] = pure compounds, standard drugs, promastigotes, clinical isolate

IC50 (L. tropica promastigotes; [13]) | IC50 (L. major promastigotes; [15]) | SMILES | MIL Resistant L. tropica IC50 (μM± SD) [1] | CC50 at 48 h [4] | L. tropica SI (CC50/ IC50) [5] | L. tropica SI (CC50/ IC50) (L. tropica promastigotes; [6]) | IC50 (L. tropica promastigotes; [7]) | L. major SI (CC50/ IC50) (L. major promastigotes; [8]) | L. major SI (CC50/ IC50) (L. major promastigotes; [9]) | IC50 (L. major promastigotes; [10]) | 3T3 (mouse fibroblast) IC50 (μM ± SD) ([3]; cytotoxicity of compounds 1-9) | 3T3 Cell line CC50 (μM± SD) [3] | BJ (human fibroblast) IC50 (μM± SD) ([5]; cytotoxicity of compounds 1-9) | anti-leishmanial activity against promastigotes of L. major (in words) (L. major promastigotes) | L. major IC50 (μM± SD) (L. major promastigotes; [12]) | IC50 (L. tropica promastigotes; [14]) | IC50 (L. major promastigotes; [16]) | other results
 |  | C[C@]12C(=O)C=CCC1=CC[C@@H]1[C@@H]2CC[C@]2(O)C(=O)O[C@@]3(C)[C@H]4C[C@]5(C)[C@@H](CO[C@@]16O[C@@]32[C@H]5C6=O)C(=O)O4 [Compound 2, Physalin B] | inactive | 10.8 ± 1.5 µM | 0.8 | 0.8 | 13.33 ± 0.098 µM | 3.28 | 3.5 | 3.04 ± 1.12 µM |  |  |  |  |  |  |  | CC50 at 48 h [2]: 10 ± 0.4 µM; IC50 [3]: 10 ± 0.4 µM; L. major SI (CC50/ IC50) ([5]; CC50 BJ cell line / IC50 L. major): 3.5; IC50 [5]: 27.6 ± 0.9 µM
 |  | CC12CC3OC(=O)C1COC14OC5(C2C1=O)C(O)(CCC1C4CC2OC24CC=CC(=O)C14C)C(=O)OC35C (stereo not drawn) [Compound 3, 5β, 6β-epoxyphysalin B] | inactive | 27.6 µM | 1.48 | 1.48 | 18.5 ± 0.28 µM | 0.19 | 7.34 | 3.76 ± 0.85 µM |  |  |  |  |  |  |  | CC50 at 48 h [2]: 0.72 ± 0.5 µM; L. tropica SI (CC50/ IC50) [3]: 0.038; IC50 [3]: 0.72 ± 0.5 µM; IC50 [5]: 10.8 ± 1.5 µM; L. tropica SI (CC50/ IC50) (L. tropica promastigotes; [11]): 0.038
 |  | C[C@@]12C[C@H]3OC(=O)[C@@H]1CO[C@@]14O[C@]5([C@H]2C1=O)[C@@](O)(CC[C@H]1[C@H]4C[C@@H](O)[C@@]2(O)CC=CC(=O)[C@]12C)C(=O)O[C@@]35C [Compound 9, Physalin D] | inactive | > 100 µM |  |  | 55.24 ± 0.01 µM |  |  |  | Non cytotoxic | Non cytotoxic | Non cytotoxic | no significant activity | inactive |  |  | 
 |  | C[C@]12C(=O)C=CC=C1[C@@H](O)C[C@@H]1[C@@H]2CC[C@@]2(O)C(=O)O[C@@]3(C)[C@H]4C[C@]5(C)[C@@H](CO[C@@]16O[C@]23[C@H]5C6=O)C(=O)O4 [Compound 7, Physalin G] |  | > 100 µM |  |  | 19.49 ± 0.02 µM |  |  | 52.3 ± 1.18 µM | Non cytotoxic | Non cytotoxic | Non cytotoxic | no significant activity |  |  |  | IC50 ([1]; Leishmania tropica, read-out: MIL Resistant L. tropica IC50 (μM± SD)): 39.4 ± 0.65 µM
3.16 ± 0.04 µg/mL | 3.14 ± 0.04 µg/mL | C[C@@H]1[C@H](O)[C@@H](C)/C=C/C=C/C=C/C=C/C=C/C=C/C=C/[C@H](O[C@@H]2O[C@H](C)[C@@H](O)[C@H](N)[C@@H]2O)C[C@@H]2O[C@](O)(C[C@@H](O)C[C@@H](O)[C@H](O)CC[C@@H](O)C[C@@H](O)CC(=O)O[C@H]1C)C[C@H](O)[C@H]2C(=O)O [Amphotericin B, reference compound] |  |  | 4.69 | 4.69 |  |  | 4.37 |  |  |  |  |  |  | 3.42 ± 0.04 µM | 3.39 ± 0.043 µM | CC50 at 48 h ([4]; BJ fibroblast cells): 16.1 µM
 |  | CC12CC3OC(=O)C1COC14OC5(C2C1=O)C(O)(CCC1C4CC(O)C2(Cl)CC=CC(=O)C12C)C(=O)OC35C (stereo not shown) [Compound 5, Physalin H] | inactive |  | 1.08 | 1.08 |  | 0.119 | 3.11 |  |  |  |  |  |  | 9.59 ± 0.27 µM | 3.34 ± 0.64 µM | CC50 [2]: 0.4 ± 0.07 µM; L. tropica SI (CC50/ IC50) [3]: 0.041; IC50 ([3]; cytotoxicity of compounds 1-9): 0.4 ± 0.07 µM; CC50 [4]: 10.4 ± 1 µM; IC50 ([5]; cytotoxicity of compounds 1-9): 14.2 ± 0.8 µM; L. tropica SI (CC50/ IC50) (L. tropica promastigotes; [11]): 0.041
 |  | CC12C(=O)C=CC=C1C(O)CC1C(=O)C3=NCC4C(=O)OC5CC4(C)C3C3(O)C(O)(CCC12)C(=O)OC53C (stereo not shown) [Compound 1, Aminophysalin B] |  |  |  |  |  |  |  |  | Non cytotoxic |  | Non cytotoxic | no significant activity | Inactive |  |  | BJ cell line CC50 (μM± SD) [5]: Non cytotoxic; L. tropica IC50 (μM± SD) (L. tropica promastigotes; [17]): Inactive
9.25 ± 0.005 µg/mL | 9.25 ± 0.005 µg/mL | N=C(N)c1ccc(OCCCCCOc2ccc(C(=N)N)cc2)cc1 [Pentamidine, reference compound] |  |  |  |  |  |  |  |  |  |  |  |  |  | 27.2 ± 0.01 µM | 27.2 ± 0.015 µM | 
 |  | CC12CC3OC(=O)C1COC14OC5(C2C1=O)C(O)(CC(O)C1C4CC(O)C24C=CC(OO2)C(=O)C14C)C(=O)OC35C (stereo not shown) [Compound 8, Physalin K] | inactive |  |  |  |  |  |  |  | Non cytotoxic | Non cytotoxic | Non cytotoxic | no significant activity | inactive |  |  | CC50 [4]: > 100 µM; L. tropica IC50 (μM± SD) (L. tropica promastigotes; [17]): inactive

SMILES | IC50 (L. tropica promastigotes; [13]) | IC50 (L. major promastigotes; [15]) | MIL Resistant L. tropica IC50 (μM± SD) [1] | CC50 at 48 h [4] | L. tropica SI (CC50/ IC50) [5] | L. tropica SI (CC50/ IC50) (L. tropica promastigotes; [6]) | IC50 (L. tropica promastigotes; [7]) | L. major SI (CC50/ IC50) (L. major promastigotes; [8]) | L. major SI (CC50/ IC50) (L. major promastigotes; [9]) | IC50 (L. major promastigotes; [10]) | 3T3 (mouse fibroblast) IC50 (μM ± SD) ([3]; cytotoxicity of compounds 1-9) | 3T3 Cell line CC50 (μM± SD) [3] | BJ (human fibroblast) IC50 (μM± SD) ([5]; cytotoxicity of compounds 1-9) | anti-leishmanial activity against promastigotes of L. major (in words) (L. major promastigotes) | L. major IC50 (μM± SD) (L. major promastigotes; [12]) | IC50 (L. tropica promastigotes; [14]) | IC50 (L. major promastigotes; [16]) | other results
CCCCCCCCCCCCCCCCOP(=O)([O-])OCC[N+](C)(C)C [Miltefosine, reference compound] | 17.4 ± 0.42 µg/mL | 10.4 ± 0.42 µg/mL |  |  |  |  |  |  |  |  |  |  |  |  |  | 42.8 ± 1.03 µM | 25.6 ± 1.03 µM | BJ cell line CC50 (μM± SD) [5]: non-toxic
